In ChEMBL document CHEMBL4304811, “Development of a Water-Soluble Indolylmaleimide Derivative IM-93 Showing Dual Inhibition of Ferroptosis and NETosis” (ACS Med Chem Lett, 2019):

How the values were obtained:
[1] = biological target: BMP-2-inducible protein kinase (Homo sapiens) (UniProt Q9NSY1); test: Binding affinity to wild-type human partial length BIKE (S34 to N329 residues) expressed in bacterial expression system assessed as residual binding level at 10 uM by Kinomescan method relative to control
[2] = biological target: Dual specificity tyrosine-phosphorylation-regulated kinase 1A (Homo sapiens) (UniProt Q13627); test: Binding affinity to wild-type human partial length DYRK1A (H129 to S509 residues) expressed in mammalian expression system assessed as residual binding level at 10 uM by Kinomescan method relative to control
[3] = biological target: Serine/threonine-protein kinase Nek11 (Homo sapiens) (UniProt Q8NG66); test: Binding affinity to wild-type human partial length NEK11 (M1 to E313 residues) expressed in mammalian expression system assessed as residual binding level at 10 uM by Kinomescan method relative to control
[4] = biological target: Serine/threonine-protein kinase pim-2 (Homo sapiens) (UniProt Q9P1W9); test: Binding affinity to wild-type human partial length PIM2 (M1 to E291 residues) expressed in bacterial expression system assessed as residual binding level at 10 uM by Kinomescan method relative to control
[5] = biological target: AP2-associated protein kinase 1 (Homo sapiens) (UniProt Q2M2I8); test: Binding affinity to wild-type human partial length AAK1 (G25 to L333 residues) expressed in bacterial expression system assessed as residual binding level at 10 uM by Kinomescan method relative to control
[6] = biological target: Serine/threonine-protein kinase SIK1 (Homo sapiens) (UniProt P57059); test: Binding affinity to wild-type human partial length SIK (M1 to Y304 residues) expressed in bacterial expression system assessed as residual binding level at 10 uM by Kinomescan method relative to control
[7] = biological target: Serine/threonine-protein kinase TNNI3K (Homo sapiens) (UniProt Q59H18); test: Binding affinity to wild-type human full length TNNI3K (M1 to S835 residues) expressed in bacterial expression system assessed as residual binding level at 10 uM by Kinomescan method relative to control
[8] = biological target: Ephrin type-A receptor 7 (Homo sapiens) (UniProt Q15375); test: Binding affinity to wild-type human partial length EPHA7 (Y608 to S912 residues) expressed in bacterial expression system assessed as residual binding level at 10 uM by Kinomescan method relative to control
[9] = biological target: RAC-alpha serine/threonine-protein kinase (Homo sapiens) (UniProt P31749); test: Binding affinity to wild-type human partial length AKT1 expressed in bacterial expression system assessed as residual binding level at 10 uM by Kinomescan method relative to control
[10] = biological target: Serine/threonine-protein kinase Nek5 (Homo sapiens) (UniProt Q6P3R8); test: Binding affinity to wild-type human partial length NEK5 (M1 to M279 residues) expressed in bacterial expression system assessed as residual binding level at 10 uM by Kinomescan method relative to control
[11] = biological target: Homeodomain-interacting protein kinase 2 (Homo sapiens) (UniProt Q9H2X6); test: Binding affinity to wild-type human partial length HIPK2 (M153 to S564 residues) expressed in mammalian expression system assessed as residual binding level at 10 uM by Kinomescan method relative to control
[12] = biological target: Dual specificity tyrosine-phosphorylation-regulated kinase 1B (Homo sapiens) (UniProt Q9Y463); test: Binding affinity to wild-type human full length DYRK1B (M1 to S629 residues) expressed in bacterial expression system assessed as residual binding level at 10 uM by Kinomescan method relative to control
[13] = biological target: Serine/threonine-protein kinase ICK (Homo sapiens) (UniProt Q9UPZ9); test: Binding affinity to wild-type human partial length ICK (M1 to P314 residues) expressed in mammalian expression system assessed as residual binding level at 10 uM by Kinomescan method relative to control
[14] = biological target: Discoidin domain-containing receptor 2 (Homo sapiens) (UniProt Q16832); test: Binding affinity to wild-type human partial length DDR2 (V555 to E855 residues) expressed in mammalian expression system assessed as residual binding level at 10 uM by Kinomescan method relative to control
[15] = biological target: Epithelial discoidin domain-containing receptor 1 (Homo sapiens) (UniProt Q08345); test: Binding affinity to wild-type human partial length DDR1 (R565 to V876 residues) expressed in bacterial expression system assessed as residual binding level at 10 uM by Kinomescan method relative to control
[16] = biological target: Tyrosine-protein kinase receptor Tie-1 (Homo sapiens) (UniProt P35590); test: Binding affinity to wild-type human partial length TIE1 (T819 to A1138 residues) expressed in bacterial expression system assessed as residual binding level at 10 uM by Kinomescan method relative to control
[17] = biological target: Serine/threonine-protein kinase Sgk3 (Homo sapiens) (UniProt Q96BR1); test: Binding affinity to wild-type human partial length SGK3 (M119 to L496 residues) expressed in mammalian expression system assessed as residual binding level at 10 uM by Kinomescan method relative to control
[18] = biological target: Mitogen-activated protein kinase 13 (Homo sapiens) (UniProt O15264); test: Binding affinity to wild-type human full length p38-delta (M1 to L365 residues) expressed in bacterial expression system assessed as residual binding level at 10 uM by Kinomescan method relative to control
[19] = biological target: Serine/threonine-protein kinase 4 (Homo sapiens) (UniProt Q13043); test: Binding affinity to wild-type human full length MST1 (M1 to F487 residues) expressed in bacterial expression system assessed as residual binding level at 10 uM by Kinomescan method relative to control
[20] = biological target: cAMP-dependent protein kinase catalytic subunit beta (Homo sapiens) (UniProt P22694); test: Binding affinity to wild-type human full length PKAC-beta (M1 to F351 residues) expressed in bacterial expression system assessed as residual binding level at 10 uM by Kinomescan method relative to control
[21] = biological target: Mitogen-activated protein kinase kinase kinase 2 (Homo sapiens) (UniProt Q9Y2U5); test: Binding affinity to wild-type human partial length MAP3K2 (S315 to H619 residues) expressed in mammalian expression system assessed as residual binding level at 10 uM by Kinomescan method relative to control
[22] = biological target: Serine/threonine-protein kinase 17A (Homo sapiens) (UniProt Q9UEE5); test: Binding affinity to wild-type human partial length DRAK1 (R32 to E363 residues) expressed in bacterial expression system assessed as residual binding level at 10 uM by Kinomescan method relative to control
[23] = tested on: Tyrosine-protein kinase ABL1 (Homo sapiens), P00519 [Q252H]; test: Binding affinity to human phosphorylated ABL1 Q252H mutant expressed in mammalian expression system assessed as residual binding level at 10 uM by Kinomescan method relative to control
[24] = biological target: Serine/threonine-protein kinase ULK2 (Homo sapiens) (UniProt Q8IYT8); test: Binding affinity to wild-type human partial length ULK2 (M1 to S301 residues) expressed in mammalian expression system assessed as residual binding level at 10 uM by Kinomescan method relative to control
Sequence of Serine/threonine-protein kinase ULK2 (Homo sapiens) (Q8IYT8 whole entry, the tested form may be a part): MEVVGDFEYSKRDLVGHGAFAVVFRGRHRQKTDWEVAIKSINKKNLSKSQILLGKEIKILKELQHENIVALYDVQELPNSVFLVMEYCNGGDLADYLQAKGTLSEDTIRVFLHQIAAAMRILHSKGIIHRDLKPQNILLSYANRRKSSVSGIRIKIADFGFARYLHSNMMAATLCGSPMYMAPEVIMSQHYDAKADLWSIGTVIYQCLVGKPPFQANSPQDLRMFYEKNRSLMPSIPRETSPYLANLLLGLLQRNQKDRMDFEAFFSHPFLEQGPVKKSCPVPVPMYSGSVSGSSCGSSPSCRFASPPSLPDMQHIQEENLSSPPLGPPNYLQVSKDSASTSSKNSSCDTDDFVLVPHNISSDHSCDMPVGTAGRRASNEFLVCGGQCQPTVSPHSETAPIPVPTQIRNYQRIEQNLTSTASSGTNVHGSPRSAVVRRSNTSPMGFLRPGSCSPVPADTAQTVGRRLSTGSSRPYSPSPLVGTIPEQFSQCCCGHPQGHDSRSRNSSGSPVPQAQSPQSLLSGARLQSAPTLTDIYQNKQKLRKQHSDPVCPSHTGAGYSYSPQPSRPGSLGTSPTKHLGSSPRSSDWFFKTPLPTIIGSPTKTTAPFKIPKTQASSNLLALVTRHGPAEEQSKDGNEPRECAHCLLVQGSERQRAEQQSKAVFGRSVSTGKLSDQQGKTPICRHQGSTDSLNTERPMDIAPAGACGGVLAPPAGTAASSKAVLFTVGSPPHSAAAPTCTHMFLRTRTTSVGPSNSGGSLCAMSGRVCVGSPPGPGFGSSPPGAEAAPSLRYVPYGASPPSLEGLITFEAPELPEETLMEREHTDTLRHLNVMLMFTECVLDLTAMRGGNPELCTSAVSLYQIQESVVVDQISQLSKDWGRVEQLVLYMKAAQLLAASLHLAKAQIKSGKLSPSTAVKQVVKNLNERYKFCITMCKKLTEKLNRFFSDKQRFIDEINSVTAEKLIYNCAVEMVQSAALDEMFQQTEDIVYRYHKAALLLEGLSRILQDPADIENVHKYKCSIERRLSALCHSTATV

Sequence of Dual specificity tyrosine-phosphorylation-regulated kinase 1B (Homo sapiens) (Q9Y463 whole entry, looked up, the tested form may be a part): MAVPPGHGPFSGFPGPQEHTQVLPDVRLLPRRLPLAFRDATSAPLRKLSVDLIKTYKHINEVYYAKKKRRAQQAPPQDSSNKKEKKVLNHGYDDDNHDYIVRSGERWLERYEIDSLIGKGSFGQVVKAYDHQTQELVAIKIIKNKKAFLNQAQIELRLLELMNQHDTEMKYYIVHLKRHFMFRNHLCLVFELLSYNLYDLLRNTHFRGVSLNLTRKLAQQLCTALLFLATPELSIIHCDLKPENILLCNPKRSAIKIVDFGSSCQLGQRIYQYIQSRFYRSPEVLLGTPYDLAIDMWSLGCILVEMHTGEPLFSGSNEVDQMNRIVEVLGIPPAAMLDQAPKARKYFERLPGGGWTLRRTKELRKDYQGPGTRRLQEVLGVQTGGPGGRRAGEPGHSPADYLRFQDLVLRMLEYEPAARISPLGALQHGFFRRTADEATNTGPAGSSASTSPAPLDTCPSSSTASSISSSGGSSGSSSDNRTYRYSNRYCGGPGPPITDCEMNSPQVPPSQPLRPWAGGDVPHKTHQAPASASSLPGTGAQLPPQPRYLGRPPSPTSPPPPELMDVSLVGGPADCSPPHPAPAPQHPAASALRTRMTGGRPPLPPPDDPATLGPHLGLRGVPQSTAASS
Sequence of Serine/threonine-protein kinase 17A (Homo sapiens) (Q9UEE5 whole entry, the tested form may be a part): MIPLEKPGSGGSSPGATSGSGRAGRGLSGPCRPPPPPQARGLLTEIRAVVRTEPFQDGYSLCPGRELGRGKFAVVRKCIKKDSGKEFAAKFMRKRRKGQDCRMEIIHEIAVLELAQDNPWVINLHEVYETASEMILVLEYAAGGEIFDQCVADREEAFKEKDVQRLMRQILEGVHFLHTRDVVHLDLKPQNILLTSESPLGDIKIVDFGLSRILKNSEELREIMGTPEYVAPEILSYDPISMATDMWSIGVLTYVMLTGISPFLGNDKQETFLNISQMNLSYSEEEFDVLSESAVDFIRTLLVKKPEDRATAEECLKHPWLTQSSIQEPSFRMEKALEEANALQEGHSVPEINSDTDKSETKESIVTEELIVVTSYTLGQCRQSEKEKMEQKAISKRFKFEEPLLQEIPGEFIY
Sequence of Serine/threonine-protein kinase pim-2 (Homo sapiens) (Q9P1W9 whole entry, looked up, the tested form may be a part): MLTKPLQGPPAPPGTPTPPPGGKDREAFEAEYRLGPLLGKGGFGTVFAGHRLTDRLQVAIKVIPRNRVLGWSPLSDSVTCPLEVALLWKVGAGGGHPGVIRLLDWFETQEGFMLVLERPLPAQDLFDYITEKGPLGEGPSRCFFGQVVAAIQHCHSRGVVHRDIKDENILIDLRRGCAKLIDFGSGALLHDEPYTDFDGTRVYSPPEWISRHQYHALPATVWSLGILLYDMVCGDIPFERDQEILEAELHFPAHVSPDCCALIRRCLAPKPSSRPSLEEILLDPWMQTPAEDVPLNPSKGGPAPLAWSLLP
Sequence of Serine/threonine-protein kinase ICK (Homo sapiens) (Q9UPZ9 whole entry, the tested form may be a part): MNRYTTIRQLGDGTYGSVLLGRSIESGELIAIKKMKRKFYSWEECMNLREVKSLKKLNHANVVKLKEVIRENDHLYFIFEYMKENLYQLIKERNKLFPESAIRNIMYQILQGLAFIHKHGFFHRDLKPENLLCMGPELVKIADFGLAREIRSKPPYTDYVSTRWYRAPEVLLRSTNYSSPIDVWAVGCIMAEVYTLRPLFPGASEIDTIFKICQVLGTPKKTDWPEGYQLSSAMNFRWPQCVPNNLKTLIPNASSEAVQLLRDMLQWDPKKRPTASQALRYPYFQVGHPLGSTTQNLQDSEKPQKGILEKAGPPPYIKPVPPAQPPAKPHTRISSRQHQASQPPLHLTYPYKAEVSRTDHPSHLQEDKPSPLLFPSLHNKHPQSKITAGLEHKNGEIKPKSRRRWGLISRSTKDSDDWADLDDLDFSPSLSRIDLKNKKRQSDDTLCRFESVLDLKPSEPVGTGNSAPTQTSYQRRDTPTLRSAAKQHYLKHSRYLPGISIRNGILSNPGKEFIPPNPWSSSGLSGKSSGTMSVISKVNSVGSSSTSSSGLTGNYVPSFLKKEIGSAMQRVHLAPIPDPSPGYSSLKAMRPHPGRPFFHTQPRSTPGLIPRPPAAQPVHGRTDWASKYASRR
Sequence of Tyrosine-protein kinase receptor Tie-1 (Homo sapiens) (P35590 whole entry, the tested form may be a part): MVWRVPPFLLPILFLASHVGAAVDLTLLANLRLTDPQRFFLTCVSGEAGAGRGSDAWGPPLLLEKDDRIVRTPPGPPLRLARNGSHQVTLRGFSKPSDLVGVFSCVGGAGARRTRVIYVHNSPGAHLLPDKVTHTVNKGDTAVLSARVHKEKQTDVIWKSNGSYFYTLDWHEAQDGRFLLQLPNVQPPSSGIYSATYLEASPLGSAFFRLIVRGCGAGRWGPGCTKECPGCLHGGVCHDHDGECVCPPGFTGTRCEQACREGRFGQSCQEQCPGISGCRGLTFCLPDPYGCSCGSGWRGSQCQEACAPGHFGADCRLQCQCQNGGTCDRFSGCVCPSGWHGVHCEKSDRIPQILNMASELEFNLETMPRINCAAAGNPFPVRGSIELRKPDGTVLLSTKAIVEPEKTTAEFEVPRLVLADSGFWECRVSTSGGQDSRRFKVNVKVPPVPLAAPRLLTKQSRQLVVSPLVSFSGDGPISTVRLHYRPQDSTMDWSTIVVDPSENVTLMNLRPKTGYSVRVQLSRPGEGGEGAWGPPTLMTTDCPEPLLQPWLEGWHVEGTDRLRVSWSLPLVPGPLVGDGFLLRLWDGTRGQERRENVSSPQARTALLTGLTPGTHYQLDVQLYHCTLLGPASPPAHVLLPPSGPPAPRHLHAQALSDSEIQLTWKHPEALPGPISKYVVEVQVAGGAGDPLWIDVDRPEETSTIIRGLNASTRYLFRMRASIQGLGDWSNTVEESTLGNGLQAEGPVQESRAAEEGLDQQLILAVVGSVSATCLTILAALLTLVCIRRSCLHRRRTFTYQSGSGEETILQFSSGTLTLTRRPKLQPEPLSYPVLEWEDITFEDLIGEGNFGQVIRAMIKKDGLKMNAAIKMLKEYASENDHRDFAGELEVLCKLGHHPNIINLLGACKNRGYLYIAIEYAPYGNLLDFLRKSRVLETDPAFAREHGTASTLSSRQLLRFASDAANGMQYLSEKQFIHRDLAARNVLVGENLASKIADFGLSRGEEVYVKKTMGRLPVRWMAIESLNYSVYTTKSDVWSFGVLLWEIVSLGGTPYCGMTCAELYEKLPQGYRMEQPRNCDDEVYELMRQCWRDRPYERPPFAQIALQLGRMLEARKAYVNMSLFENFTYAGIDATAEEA
Sequence of Mitogen-activated protein kinase kinase kinase 2 (Homo sapiens) (Q9Y2U5 whole entry, the tested form may be a part): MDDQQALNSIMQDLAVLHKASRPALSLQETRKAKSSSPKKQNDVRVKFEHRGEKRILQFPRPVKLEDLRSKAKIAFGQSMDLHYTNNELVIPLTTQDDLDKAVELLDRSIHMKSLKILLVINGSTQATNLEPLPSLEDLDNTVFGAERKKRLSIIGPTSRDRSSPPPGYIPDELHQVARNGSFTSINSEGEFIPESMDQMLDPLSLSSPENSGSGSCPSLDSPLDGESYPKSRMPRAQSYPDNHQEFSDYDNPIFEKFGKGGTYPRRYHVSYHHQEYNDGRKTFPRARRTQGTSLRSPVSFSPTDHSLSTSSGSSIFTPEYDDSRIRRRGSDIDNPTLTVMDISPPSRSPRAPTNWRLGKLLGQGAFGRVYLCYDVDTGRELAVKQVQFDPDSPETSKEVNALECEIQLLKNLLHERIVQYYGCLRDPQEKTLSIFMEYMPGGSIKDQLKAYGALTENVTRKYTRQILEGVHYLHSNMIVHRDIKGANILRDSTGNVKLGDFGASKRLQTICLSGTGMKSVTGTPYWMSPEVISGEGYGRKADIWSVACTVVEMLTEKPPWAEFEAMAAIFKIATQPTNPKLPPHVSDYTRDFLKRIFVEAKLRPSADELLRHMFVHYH

## CC(C)N1C(=O)C(NCCCN(C)C)=C(c2cn(C)c3ccccc23)C1=O.Cl
[1]
  Activity: 94%
[2]
  Activity: 87%
[3]
  Activity: 100%
[4]
  Activity: 100%
[5]
  Activity: 100%
[6]
  Activity: 95%
[7]
  Activity: 100%
[8]
  Activity: 93%
[9]
  Activity: 95%
[10]
  Activity: 100%
[11]
  Activity: 100%
[12]
  Activity: 93%
[13]
  Activity: 81%
[14]
  Activity: 100%
[15]
  Activity: 100%
[16]
  Activity: 92%
[17]
  Activity: 89%
[18]
  Activity: 100%
[19]
  Activity: 93%
[20]
  Activity: 98%
[21]
  Activity: 83%
[22]
  Activity: 97%
[23]
  Activity: 84%
[24]
  Activity: 80%
